Columns and labels:
human thrombocytes = test: Aggregation of thrombocytes induced by arachidonic acid in vitro; type: cell-based; details: Table 2; 0.06 mg per tube
Protocol: We studied the anti-inflammatory action of nucleic acids on the model of thrombocyte aggregation in vitro by the method of Born (Born L.V.R. The aggregation of blood platelets by diphosphate and its reversal, Nature, […], P. 327, 1962). Venous human blood was taken in silicon tubes of Becton Dickson, which contained a 3.8% solution of sodium citrate. In order to receive thrombocytic-rich plasma, citrate blood was centrifuged at 1500 rev/mm for 7 minutes. Plasma free of thrombocytes was obtained by centrifuging 2.0 ml of plasma taken from medium layers for 15 minutes at 3000 rev/mm. We counted the number of thrombocytes in the thrombocytic-containing plasma, which was later diluted by the thrombocyte-free plasma to the final concentration […].
An Aggregometer produced by “Tromlite” (Poland) was used for thrombocyte aggregation. In order to induce aggregation, arachidonic acid was diluted in Michaelis buffer in the proportion 1 mg/ml. Two tubes were inserted in the aggregometer, one of which contained 0.2 ml of thrombocyte-containing plasma, while the other one had 0.2 ml of thrombocyte-free plasma and 0.1 ml of isotonic solution of sodium chloride. […] Then, the light-transparency of thrombocyte-containing plasma was measured during 5 minutes, which indicated the stage of thrombocyte aggregation. […]

[1] = tested on: carrageenan-induced swelling of leg; test: Local inflammation (leg swelling) provoked by carrageenan in mice; type: in vivo, BALB-line mice; details: for % inhibition of swelling: 0.4 mg per mouse (20 mg/kg), 20 mg/kg
Protocol: To study the anti-inflammatory action of drugs, we used the model of local inflammation in mice. Inflammation in BALB-line mice was modeled with the help of carrageenan, a classical phlogogenic agent. 30 minutes before the injection, the mice were injected intra-abdominally with drug, which was dissolved in […] of physiological solution (PS). Carrageenan […] produced by Serva Fein Biochemica (Germany) was prepared in the form of a 1% solution in PS. The obtained viscous solution, 40 mcl, was injected subplantally in the left back leg. The right, intact leg was taken as control. 4 hours later after the carrageenan injection, the mice were killed via decapitation, and their back legs were detached from the bodies on the same level, a little higher the ankles. After that, the legs were carefully weighted, with 1 mg accuracy. Obtained results were statistically processed by the MultiFac 2.2. SPSS 8/0 software. The anti-inflammatory effect of the drug was calculated by the formula:
[formula] • Vk—average increase of volume (mass) of the swollen leg in control mice • Vo—average increase of volume (mass) of the swollen leg in treated mice
In the first test, mice were divided into 8 groups. The first group consisted of control animals, which were injected intra-abdominally with 2 ml of PS. Also, […] of PS was injected in the left leg. This group was studied to determine the influence of injection on the course of inflammation in a leg. The second group, control with LPS, took […] of PS intra-abdominally and received LPS injections in the left leg. The third group took […] of aspirin dissolved in PS in the concentration 0.4 mg per mouse. In the fourth, fifth and sixth groups, yeast RNA-D was dissolved in PS in respective concentrations 5, 10, and 15 mg in 2 ml of PS per animal. LPS was injected in the left leg to provoke swelling. The seventh and eighth groups were treated respectively by DNA-TC and DNA-EC, which were injected in the concentration 15 mg per mouse, as explained above for RNA-treated groups.
The right legs were left intact. 4 hours later, the animals were decapitated. […]

NO-synthetase (NOS) [2] = test: NOS activity in mouse blood plasma after carrageenan injection; type: in vivo; details: 320 min after carrageenan; LPS control 110.48
Protocol: (§1) […] We tested the influence of yeast RNA on the activity of NO-synthetase ferment (NOS) in blood plasma and in erythrocytes, as well as on the content in blood plasma of free arachidonic acid and products of its oxide metabolism, carried out in lypoxygenase (leukotriene C4 (LTC4)) and cyclooxygenase (thromboxane B2 (T×B2)) ways.
(§2) The activity in blood plasma and erythrocytes of the enzyme NO-synthetase was measured by colometric method applied to the outcome of reaction, nitrite anion. (Yan L., Vandivier R. W., Suffredini A. F., Danner R. L., Human polymorphonuclear leukocytes lack detectable nitric oxide synthetase activity. J. Immunol., 15; 153(4): 1825–1834; 1994). […] The reaction was initiated by adding 0.1 ml of a probe containing 500 microgram of general protein determined by Bredford method. […]
(§3) Nitrite anion was determined using the reagent of Gris in colometric reaction as decribed in Green et al. (Green L. C., Waagner D. A., Glogowski J. et al., Analysis of nitrate, nitrite and [15N] nitrate in biological fluids, Anal. Biochem., 126(1): 131–138;1982). […] In 5 minutes after mixing, the extinction at 543 hm was measured. The quantity of NO2 was measured by standard curve built for NaNO2.

NO-synthetase (NOS) [3] = test: NOS activity in mouse erythrocytes after carrageenan injection; type: in vivo; details: 320 min after carrageenan; LPS control 2.232
Protocol: as §1, §2, §3

free arachidonic acid = test: Free arachidonic acid in mouse blood plasma after carrageenan injection; type: in vivo; details: 320 min after carrageenan; LPS control 3.37
Protocol: as §1
(§4) The content of free arachidonic acid (AA) was measured by two-dimensional thin-layer chromatography (TLC) as discussed in Tsunamoto et al. (Tsunamoto K., Todo S., Imashuku S. Separation of prostaglandines and thromboxane by two-dimensional thin-layer chromatography. J. Chromatog. 3; 417(2); 414–419; 1987. The content of stable metabolite of thromboxane A2 (TXB2) was studied in probes by radio-immune method with TXB2 [^3H] RIA Kit, by Amersham International PLC (England) (McCann D. S., Tokarsky J., Sorkin R. P., Radioimmunoassay for plasma thromboxane B2. Clin. Chem., 27(8): 1417–1420, 1981). The content of LTC4 was tested in probes by radio-immune method with LTC4 [^3H] RIA Kit by Du Pont Ltd. Hertfordshire, (UK) (Levine L., Morgan R. A., Levis R. A. et al., Radioimmunoassay of the leukotrienes of slow reactivity substance of anaphylaxis. Proc. Natl. Acad. Sci. USA. 78(12): 7692–7696; 1981).

thromboxane B2 = test: Thromboxane B2 in mouse blood plasma after carrageenan injection; type: in vivo; details: 320 min after carrageenan; LPS control 358.240
Protocol: as §1, §4

leukotriene C4 = test: Leukotriene C4 in mouse blood plasma after carrageenan injection; type: in vivo; details: 320 min after carrageenan; LPS control 226.78
myeloperoxydase = test: Myeloperoxydase activity in the ischemized part of myocardium; type: in vivo, rats; details: 30 minutes occlusion, 1 hour reperfusion; control 211.8+16.7
Source text: The mieloperoxydase activity (MPA) was studied in myocardium using the method of Bradley et al. (Bradley P. P., Priebet D. A., Christensen R. D. et al., Measurement of cutateous inflammation: estimation of neutrophil content with an enzyme marker, J. Invest. Dermatol., 78(3): 206–209; 1982) in the modification by Grisfwold et al. (Griswold D. E., Hillegass L. M., Hill D. E. et al., Method for quantification of myocardial infarction and inflammatory cell infiltration in rat cardial tissue, J. Pharmacol. Methods, 20(3): 225–235, 1988). For this purpose, the heart was extracted and rinsed in physiological solution, which was cooled to 0° C. After rinsing, a section of myocardium (1 g of the tissue) in the central zone of ischemia was cut out and frozen to −30° C. The final fraction was prepared as a 10% haemogenate with extractive buffer containing 0.5% hexadecyltrimethyl ammonium bromide (pH 6.0) at room temperature. […]
The upper fraction (30 microliters) was used for a reaction with 0.167 mg/ml of O-dianisodine in 50 millimole/l of potassium phosphate buffer (pH 6.0). […] The reaction had been continuously tested for 5 minutes at 460 hm wave length, and with readings taken every minute. A chart indicating the readings was prepared. A unit of MPA was defined as the quantity of ferment, which destroys 1 micromole/min H2O2 at 25° C. The data was calculated as MPA per 1 gram of tissue. […]

SMILES: CC(=O)Oc1ccccc1C(=O)O [Aspirin, aspirin]
- inhibition of thrombocyte aggregation (index of aggregation), M (human thrombocytes): 38.66%
- % inhibition of swelling [1]: 18.03%
- % inhibition of swelling ([1]; listed as aspirin): 18.03%
- increase of mass of the swollen leg ([1]; 0.4 mg per mouse intra-abdominally, 4 hours after carrageenan, Control + LPS 43.31): 35.5 +
- activity of NOS in blood plasma, M (NO-synthetase (NOS) [2]): 42.24 picomol per 1 min per 1 mg of protein
- activity of NOS in erythrocytes, M (NO-synthetase (NOS) [3]): 3.613 picomol per 1 min per 1 mg of protein
- content of free arachidonic acid in blood plasma (free arachidonic acid): 2.64 nanomol per 1 mg of protein
- content of thromboxane B2 in blood plasma (thromboxane B2): 153.903 picomol per 1 mg of protein
- content of leukotriene C4 in blood plasma (leukotriene C4): 93.99 picomol per 1 mg of protein
- activity of myeloperoxydase in ischemized myocardium (myeloperoxydase): 176.1+5.9 units per 1 g of tissue

From patent US7153839B2, “Method of protecting erythricytes, in particular for improvement of blood cytopenia” (Biocell Laboratories, priority 2000, dated 2006)
